# According to patent publication US5087634A, “N-substituted imidazol-2-one compounds for treatment of circulatory disorders” (G. D. Searle & Co., priority 1990, dated 1992):
# “And” between values parts separate entries of the source, which are not always exact repeats. Identical values can stand only once.
# Experiments:
# [1] = test system: angiotensin II; details: binding experiments, functional assays and in vivo tests; cited from earlier work
# [2] = test system: angiotensin II receptors; details: cited from earlier work
# [3] = target: T1, rabbit aortic rings (Oryctolagus cuniculus, UniProt P34976); experiment: In Vitro Vascular Smooth Muscle-Response for AII (rabbit aortic rings); set-up: species or system rabbit (male New Zealand white); details: antagonist 10^-5 M for 5 minutes before AII; rabbit aorta rings, 37° C.; read-out: pA2 value (converted)
# T1 construct: The thoracic aorta was removed, cleaned of adherent fat and connective tissue and then cut into 3-mm ring segments; from tissue; host or cells: thoracic aorta rings of male New Zealand white rabbits, endothelium removed
# T1 sequence (P34976 1-359): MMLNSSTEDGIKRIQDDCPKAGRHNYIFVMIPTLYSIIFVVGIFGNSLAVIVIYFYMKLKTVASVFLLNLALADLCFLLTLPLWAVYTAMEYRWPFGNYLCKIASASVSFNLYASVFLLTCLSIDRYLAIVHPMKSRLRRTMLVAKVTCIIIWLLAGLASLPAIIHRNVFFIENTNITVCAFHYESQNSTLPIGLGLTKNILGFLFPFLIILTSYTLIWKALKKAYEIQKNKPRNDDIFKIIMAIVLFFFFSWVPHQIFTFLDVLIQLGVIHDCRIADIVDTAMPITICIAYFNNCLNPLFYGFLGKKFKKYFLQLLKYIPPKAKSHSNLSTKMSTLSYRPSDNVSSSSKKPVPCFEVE
# Description: The compounds of the invention were tested for antagonist activity in rabbit aortic rings. Male New Zealand white rabbits (2-2.5 kg) were sacrificed using an overdose of pentobarbital and exsanguinated via the carotid arteries. The thoracic aorta was removed, cleaned of adherent fat and connective tissue and then cut into 3-mm ring segments. The endothelium was removed from the rings by gently sliding a rolled-up piece of filter paper into the vessel lumen. The rings were then mounted in a water-jacketed tissue bath, maintained at 37° C., between moveable and fixed ends of a stainless steel wire with the moveable end attached to an FT03 Grass transducer coupled to a Model 7D Grass Polygraph for recording isometric force responses. The bath was filled with 20 ml of oxygenated (95% oxygen/5% carbon dioxide) Krebs solution of the following composition (mM): 130 NaCl, 15 NaHCO3, 15 KCl, 1.2 NaH2 P04, 1.2 MgSO4, 2.5 CaCl2, and 11.4 glucose. The preparations were equilibrated for one hour before approximately one gram of passive tension was placed on the rings. Angiotensin II concentration-response curves were then recorded (3×10^-10 to 1×10^-5 M). […] The effectiveness of the test compound was expressed in terms of pA2 values and were calculated according to H. O. Schild [Br. J. Pharmacol. Chemother., 2, 189-206 (1947)]. […] Each test antagonist was evaluated in aorta rings from two, rabbits.
# [4] = target: smooth muscle angiotensin II receptor; experiment: Angiotensin II Binding Activity (displacement of 125I-AII from rat uterine membranes); details: 25° C., 60 min, read-out: IC50 (50% displacement of the total specifically bound 125I-AII)
# Description: Compounds of the invention were tested for ability to bind to the smooth muscle angiotensin II receptor using a rat uterine membrane preparation. Angiotensin II (AII) was purchased from Peninsula Labs. 125I-angiotensin II (specific activity of 2200 Ci/mmol) was purchased from Du Pont-New England Nuclear. Other chemicals were obtained from Sigma Chemical Co. This assay was carried out according to the method of Douglas et al [Endocrinoloby, 106, 120-124 (1980)]. Rat uterine membranes were prepared from fresh tissue. All procedures were carried out at 4° C. Uteri were stripped of fat and homogenized in phosphate-buffered saline at pH 7.4 containing 5 mM EDTA. The homogenate was centrifuged at 1500× g for 20 min., and the supernatant was recentrifuged at 100,000× g for 60 min. The pellet was resuspended in buffer consisting of 2 mM EDTA and 50 mM Tris-HCl (pH 7.5) to a final protein concentration of 4 mg/ml. Assay tubes were charged with 0.25 ml of a solution containing 5 mM MgCl2, 2 mM EDTA, 0.5% bovine serum albumin, 50 mM Tris-HCl, pH 7.5 and ^125 I-AJI (approximately 10^5 cpm) in the absence or in the presence of unlabelled ligand. […] Filters were assayed for radioactivity in a Micromedic gamma counter. […] Specific binding was calculated as total binding minus nonspecific binding. […] Binding data were analyzed by a nonlinear least-squares curve fitting program.
# [5] = test system: angiotensin II pressor response; experiment: In Vivo Intragastric Pressor Assay Response for AII Antagonists; set-up: species or system rat (male Sprague-Dawley); details: dose 10 (units not given), gavage, listed as EX. #1
# Description: Male Sprague-Dawley rats weighing 225-300 grams were anesthetized with methohexital (30 mg/kg, i.p.) and catheters were implanted into the femoral artery and vein. The catheters were tunneled subcutaneously to exit dorsally, posterior to the head and between the scapulae. The catheters were filled with heparin (1000 units/ml of saline). The rats were returned to their cage and allowed regular rat chow and water ad libitum. After full recovery from surgery (3-4 days), rats were placed in Lucite holders and the arterial line was connected to a pressure transducer. Arterial pressure was recorded on a Gould polygraph (mmHg). […] After allowing one hour for pressure to stabilize, the test compound (suspended in 0.5% methylcellulose in water) was administered by gavage. The volume administered was 2 ml/kg body weight. Arterial pressure was monitored for 5 hours post-dosing. The angiotensin II infusion was then discontinued and pressure was allowed to reach a stable recovery level. Percent inhibition (%I) of the angiotensin II pressor response was calculated from the difference in pressure at a given timepoint post-dosing with the test compound and the antiotensin II-infused pressure, divided by the difference in pressure with and without the angiotensin II infusion; this value was multiplied by 100. Duration of action of a test compound was defined as the time taken for pressure to return to angiotensin II-infused baseline levels after compound administration. One compound at one dose was tested in each rat. The compound of Example I was tested in two rats.
smiles,measurement,setting,value
CCCCc1nc(Cl)c(CC(=O)O)n1Cc1ccccc1Cl [2-n-butyl-4-chloro-l-(2-chlorobenzyl)imidazole-5-acetic acid],angiotensin II antagonist activity,[1],specific competitive angiotensin II antagonist activity
CNCC(=O)N[C@@H](CCCN=C(N)N)C(=O)N[C@H](C(=O)N[C@@H](Cc1ccc(O)cc1)C(=O)N[C@H](C(=O)N[C@@H](Cc1cnc[nH]1)C(=O)N1CCC[C@H]1C(=O)N[C@@H](C)C(=O)O)C(C)C)C(C)C [Saralasin],residual agonist activity,[2],significant residual agonist activity
"CCCCc1cn(CCCC)c(=O)n1Cc1ccc(-c2ccccc2-c2nnn[nH]2)cc1 [Example 1, 1,4-dibutyl-1,3-dihydro-3-[2'-(1H-tetrazol-5-yl)[1,1'biphenyl]-4-ylmethyl]-2H-imidazol-2-one]",Kb,[3],2.51 nM
same,IC50,[4],6.4 nM
same,"mean arterial pressure after administration, time 10","[5]; time 10, AII infusion 50 ng/kg/min, two rats (baseline/after AII 116/168 and 126/175 mmHg)",165 mmHg and 166 mmHg
same,"mean arterial pressure after administration, time 20","[5]; time 20, AII-infused rats",163 mmHg and 155 mmHg
same,"mean arterial pressure after administration, time 30","[5]; time 30, AII-infused rats",159 mmHg and 147 mmHg
same,"% inhibition (% I) of the AII pressor response, time 40","[5]; time 40, AII-infused rats",41% and 58%
same,"mean arterial pressure after administration, time 40","[5]; time 40, AII-infused rats",146 mmHg and 147 mmHg
same,"% inhibition (% I) of the AII pressor response, time 50","[5]; time 50, AII-infused rats",45% and 89%
same,"mean arterial pressure after administration, time 50","[5]; time 50, AII-infused rats",144 mmHg and 132 mmHg
same,"% inhibition (% I) of the AII pressor response, time 60","[5]; time 60, AII-infused rats",54% and 88%
same,"mean arterial pressure after administration, time 60","[5]; time 60, AII-infused rats",140 mmHg and 132 mmHg
same,"% inhibition (% I) of the AII pressor response, time 90","[5]; time 90, AII-infused rats",86% and 96%
same,"mean arterial pressure after administration, time 90","[5]; time 90, AII-infused rats",123 mmHg and 128 mmHg
same,"% inhibition (% I) of the AII pressor response, time 120","[5]; time 120, AII-infused rats",85% and 103%
same,"mean arterial pressure after administration, time 120","[5]; time 120, AII-infused rats",124 mmHg and 125 mmHg
same,"% inhibition (% I) of the AII pressor response, time 150","[5]; time 150, AII-infused rats",93% and 97%
same,"mean arterial pressure after administration, time 150","[5]; time 150, AII-infused rats",119 mmHg and 128 mmHg
same,"% inhibition (% I) of the AII pressor response, time 180","[5]; time 180, AII-infused rats",96% and 97%
same,"mean arterial pressure after administration, time 180","[5]; time 180, AII-infused rats",117 mmHg and 127 mmHg
same,"% inhibition (% I) of the AII pressor response, time 210","[5]; time 210, AII-infused rats",106% and 98%
same,"mean arterial pressure after administration, time 210","[5]; time 210, AII-infused rats",113 mmHg and 127 mmHg
same,"% inhibition (% I) of the AII pressor response, time 240","[5]; time 240, AII-infused rats",102% and 89%
same,"mean arterial pressure after administration, time 240","[5]; time 240, AII-infused rats",115 mmHg and 131 mmHg
same,"% inhibition (% I) of the AII pressor response, time 270","[5]; time 270, AII-infused rats",96% and 92%
same,"mean arterial pressure after administration, time 270","[5]; time 270, AII-infused rats",117 mmHg and 130 mmHg
same,"% inhibition (% I) of the AII pressor response, time 300","[5]; time 300, AII-infused rats",97% and 87%
same,"mean arterial pressure after administration, time 300","[5]; time 300, AII-infused rats",117 mmHg and 133 mmHg
CCCCc1nc(Cl)c(CC(=O)O)n1Cc1ccccc1[N+](=O)[O-] [2-butyl-4-choloro-l-(2-nitrobenzyl)imidazole-5-acetic acid],angiotensin II antagonist activity,[1],specific competitive angiotensin II antagonist activity
